The text below walks through data of US20090233957A1, “(-)-BELOXEPIN AND METHODS FOR ITS SYNTHESIS AND USE” (priority 2008, published 2009).

For orientation: Ki means the dissociation constant of the complex between target and ligand, obtained from inhibition or displacement. For orientation: IC50 means the midpoint of a concentration-inhibition curve.

In assay [1] the target is T1, cloned human NE transporter (hNET) (Homo sapiens, UniProt P23975).
T1 construct: expressed in transfected cells; host or cells: CHO cells
Description: NE transporter binding assay, [3H]nisoxetine. The settings on record: membranes of CHO cells expressing hNET; read-out: NET Ki. On the procedure:
Protocols. For the NE transporter binding assay, [^3H]nisoxetine (1.0 nM) was incubated with various concentrations of test compounds for 2 hours at 4° C. with membranes prepared from Chinese hamster ovary cells (CHO) cells heterologously expressing the cloned human NE transporter (hNET). Bound radioactivity was determined by scintillation spectroscopy.

Assay [2] concerns the target NET (rat hypothalamus synaptosomes) (Rattus norvegicus, UniProt Q63380). Briefly: NE uptake inhibition assay, [3H]norepinephrine into synaptosomes. The format is biochemical. The settings on record: 20 min 37° C., read-out: NET IC50 (norepinephrine reuptake inhibition).
In assay [3] the target is T2, cloned human 5HT2A receptor (Homo sapiens, UniProt P28223).
T2 construct: expressed in transfected cells; host or cells: HEK-293 cells
Briefly: 5HT2A receptor binding assay, [3H]ketanserin. Conditions: HEK-293 membranes. Here is the method: For the 5HT2A receptor binding assay, [^3H]ketanserin (0.5 nM) was incubated for 60 min at 22° C. with membranes prepared from HEK-293 cells heterologously expressing the cloned human 5-HT2A receptor according to the method of Bonhaus et al., 1995, Brit. J. Pharmacol. 115:622-628. Various concentrations of test compound were added and bound radioactivity was determined by scintillation counting. Non-specific binding was determined in the presence of 1.0 μM unlabeled ketanserin. The Ki value for the test compound was determined using standard methods.

Assay [4] concerns the target T2, cloned human 5HT2A receptor. Description: 5HT2A functional assay, intracellular Ca2+ in HEK-293 cells. The format is cell-based. Here is the method: (§1) Agonist effects at the 5HT2A receptor were assessed by incubation at 22° C. of a series of concentrations of test compound with intact HEK-293 cells heterologously expressing the cloned human 5HT2A receptor and measuring intracellular [Ca^2+] by fluorimetry according to the method of Jerman et al., 2001, Eur. J. Pharmacol. 414:23-30). Antagonist effects were assessed by the ability of a series of concentrations of test compound to block the increase in intracellular [Ca^2+] that occurred in the presence of 3.0 nM serotonin under the same conditions. EC50 and IC50 values were determined using standard methods.

Assay [5] concerns the target T3, cloned human 5HT2B receptor (Homo sapiens, UniProt P41595).
T3 construct: expressed in transfected cells; host or cells: CHO cells
Briefly: 5HT2B functional assay, intracellular Ca2+ in CHO cells. Format: cell-based. On the procedure:
as §1, with “5HT2B” for “5HT2A”, “CHO” for “HEK-293”, “Porter” for “Jerman”, “1991, Brit.” for “2001, Eur.”, “128:13-20.” for “414:23-30).”, “0.3” for “3.0”

Assay [6] addresses T4, cloned human 5HT2C receptor (Homo sapiens, UniProt P28335).
T4 construct: expressed in transfected cells; host or cells: CHO cells
T4 sequence (P28335 33-458): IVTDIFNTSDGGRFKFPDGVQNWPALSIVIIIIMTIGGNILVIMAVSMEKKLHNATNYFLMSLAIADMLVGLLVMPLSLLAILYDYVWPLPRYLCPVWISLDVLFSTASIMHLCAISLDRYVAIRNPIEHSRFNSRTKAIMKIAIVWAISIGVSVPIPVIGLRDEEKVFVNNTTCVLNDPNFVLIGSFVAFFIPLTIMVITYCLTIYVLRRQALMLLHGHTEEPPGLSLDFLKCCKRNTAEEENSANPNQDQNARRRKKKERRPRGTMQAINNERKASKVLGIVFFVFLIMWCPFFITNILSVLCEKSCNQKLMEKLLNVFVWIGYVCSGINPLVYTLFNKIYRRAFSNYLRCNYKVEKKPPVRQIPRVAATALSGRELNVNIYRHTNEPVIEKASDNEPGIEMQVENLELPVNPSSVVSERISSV
Briefly: 5HT2C receptor binding assay, [3H]mesulergine. The settings on record: CHO membranes. Here is the method:
For the 5HT2C receptor binding assay, [^3H]mesulergine (1.0 nM) was incubated for 60 min at 37° C. with membranes prepared from Chinese hamster ovary cells heterologously expressing the cloned human 5-HT2C receptor according to the method of Stam et al., 1994, Eur. J. Pharmacol. 269:339-348. Various concentrations of test compound were added and bound radioactivity was determined by scintillation counting. Non-specific binding was determined in the presence of 10 μM RS102221. The Ki value for the test compound was determined using standard methods.

The target in assay [7] is T4, cloned human 5HT2C receptor. Description: 5HT2C functional assay, intracellular Ca2+ in CHO cells. The format is cell-based. Here is the method:
as §1, with “5HT2C” for “5HT2A”, “CHO” for “HEK-293”, “414:23-30.” for “414:23-30).”

For assay [8], the system named is rat hindpaw incision model. Briefly: rat hindpaw incisional pain model, tactile allodynia. The format is in vivo. The settings on record: 30 mg/kg IP, 24 hours post-surgery. On the procedure:
Protocol. A time course experiment was also performed with (−)-beloxepin in the hindpaw incision model. At 24 hours post-surgery, rats received vehicle or (−)-beloxepin (30 mg/kg IP). Rats were tested for tactile allodynia at 30, 60, 120 and 240 minutes after administration of (−)-beloxepin.
Protocol. Another time course experiment was performed with (+)-beloxepin in the hindpaw incision model. At 24 hours post-surgery, rats received vehicle or (+)-beloxepin (30 mg/kg IP). Rats were tested for tactile allodynia at 30, 60, 120 and 240 minutes after administration of (+)-beloxepin.

The mark [9] stands for this setting: antagonist mode, vs 3.0 nM serotonin.

T2 sequence (P28223 whole entry): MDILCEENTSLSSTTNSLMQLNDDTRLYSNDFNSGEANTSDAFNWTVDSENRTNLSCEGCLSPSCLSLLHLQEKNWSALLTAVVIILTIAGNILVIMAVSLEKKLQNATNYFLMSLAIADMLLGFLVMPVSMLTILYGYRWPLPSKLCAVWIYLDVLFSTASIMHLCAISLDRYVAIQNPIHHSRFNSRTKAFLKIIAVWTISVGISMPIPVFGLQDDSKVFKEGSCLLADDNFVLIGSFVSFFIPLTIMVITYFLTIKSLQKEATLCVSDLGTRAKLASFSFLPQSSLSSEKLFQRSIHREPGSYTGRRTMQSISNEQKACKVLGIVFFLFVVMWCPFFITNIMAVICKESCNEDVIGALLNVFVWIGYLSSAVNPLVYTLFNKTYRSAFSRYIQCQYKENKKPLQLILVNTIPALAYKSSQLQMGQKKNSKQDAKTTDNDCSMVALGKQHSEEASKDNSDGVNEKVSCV
T3 sequence (P41595 whole entry): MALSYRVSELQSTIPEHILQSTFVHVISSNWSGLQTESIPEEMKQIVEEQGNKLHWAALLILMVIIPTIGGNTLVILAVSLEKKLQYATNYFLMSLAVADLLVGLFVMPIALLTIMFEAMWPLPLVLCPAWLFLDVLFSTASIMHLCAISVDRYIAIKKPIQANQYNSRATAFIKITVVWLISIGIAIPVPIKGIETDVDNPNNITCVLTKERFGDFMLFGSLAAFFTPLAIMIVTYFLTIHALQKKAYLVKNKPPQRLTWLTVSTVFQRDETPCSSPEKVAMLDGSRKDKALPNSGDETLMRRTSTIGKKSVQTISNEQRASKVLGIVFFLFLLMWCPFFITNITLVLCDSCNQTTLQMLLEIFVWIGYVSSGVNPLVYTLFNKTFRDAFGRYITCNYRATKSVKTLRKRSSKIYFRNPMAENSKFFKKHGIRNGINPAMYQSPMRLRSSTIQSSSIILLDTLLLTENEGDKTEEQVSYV
NET (rat hypothalamus synaptosomes), sequence (Q63380 1-617): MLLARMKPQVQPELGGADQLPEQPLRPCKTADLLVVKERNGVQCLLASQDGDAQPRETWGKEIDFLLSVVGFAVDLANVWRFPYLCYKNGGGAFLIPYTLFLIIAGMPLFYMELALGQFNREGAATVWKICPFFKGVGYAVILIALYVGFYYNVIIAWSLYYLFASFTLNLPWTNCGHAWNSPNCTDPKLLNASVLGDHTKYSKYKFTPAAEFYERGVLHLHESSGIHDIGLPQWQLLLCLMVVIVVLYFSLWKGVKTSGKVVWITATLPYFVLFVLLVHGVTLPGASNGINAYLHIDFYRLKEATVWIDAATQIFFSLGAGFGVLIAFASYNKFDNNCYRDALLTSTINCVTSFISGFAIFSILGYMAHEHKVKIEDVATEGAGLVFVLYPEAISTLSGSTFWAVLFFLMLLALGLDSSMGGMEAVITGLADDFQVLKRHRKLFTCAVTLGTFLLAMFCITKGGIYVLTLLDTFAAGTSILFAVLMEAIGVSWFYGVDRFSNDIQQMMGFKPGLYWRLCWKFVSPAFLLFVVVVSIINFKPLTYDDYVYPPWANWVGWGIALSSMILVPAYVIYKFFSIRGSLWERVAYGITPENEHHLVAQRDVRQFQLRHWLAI
T1 sequence (P23975 whole entry): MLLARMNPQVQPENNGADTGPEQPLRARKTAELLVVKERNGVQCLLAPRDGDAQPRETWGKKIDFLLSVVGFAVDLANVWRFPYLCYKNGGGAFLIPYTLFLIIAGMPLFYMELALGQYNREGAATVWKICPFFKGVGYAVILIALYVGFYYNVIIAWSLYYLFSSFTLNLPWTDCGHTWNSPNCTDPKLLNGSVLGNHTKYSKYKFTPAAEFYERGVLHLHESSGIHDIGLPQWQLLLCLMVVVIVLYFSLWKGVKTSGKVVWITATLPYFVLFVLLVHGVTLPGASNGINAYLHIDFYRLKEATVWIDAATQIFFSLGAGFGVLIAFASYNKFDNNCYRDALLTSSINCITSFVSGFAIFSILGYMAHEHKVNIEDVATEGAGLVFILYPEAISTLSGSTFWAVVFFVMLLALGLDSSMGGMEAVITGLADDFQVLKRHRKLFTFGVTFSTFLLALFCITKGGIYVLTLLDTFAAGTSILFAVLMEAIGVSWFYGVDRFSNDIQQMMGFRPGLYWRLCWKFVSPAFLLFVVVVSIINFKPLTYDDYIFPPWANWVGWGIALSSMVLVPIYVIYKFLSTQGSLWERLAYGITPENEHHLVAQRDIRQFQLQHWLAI

Take `Cc1cccc2c1Oc1ccccc1C1(O)CCN(C)CC21` (single isomer, unassigned; (+)) [(+)-beloxepin]: the values for the Ki in assay [1], in assay [3] and in assay [6] were 2920 nM, 97 nM and 84 nM, respectively. Further, the IC50 was found to be 1200 nM in assay [2]; 1600 nM in assay [4] (setting [9]); 690 nM in assay [5] (antagonist mode, vs 0.3 nM serotonin); 7200 nM in assay [7] (setting [9]). Also, the “5HT2A functional activity type” value in assay [4] is “antagonist”. Besides, the “5HT2B functional activity type” value in assay [5] was “antagonist”. Besides, the “5HT2C functional activity type” value in assay [7] was “antagonist”. In addition, the “maximum hindpaw withdrawal threshold” value in assay [8] (30 minute time point) is reported as roughly 28 grams. In addition, the “antiallodynic effect” value in assay [8] (tested 30, 60, 120, 240 min) is “significant antiallodynic effect at the 30 and 60 minute time points”.
